The source of these data is patent publication US20020010333A1, “Use of xanthine derivatives for reducing the pathological hyperreactivity of eosinophilic granulocytes, novel xanthine compounds and process for their preparation” (Hoechst Aktiengesellschaft, priority 1994, published 2002).

≈ marks a conversion by molar mass, not a printed value. Like-named read-outs stand apart in the source and are kept apart here.

Series [1] has as its system histamine-induced contraction of isolated trachea. Nature of the series: Anticonstrictive action against histamine-induced contraction of isolated tracheal ring chains. As to conditions: Cavia porcellus; guinea pig tracheal chain, histamine dihydrochloride 3×10^−7 g/ml, n=6. Further details: species or system albino guinea pigs. From the text: (§1) The inhibitory action of the compounds of formula I on the proinflammatory early-phase mediators histamine, PAF and leukotriene D4 (LTD4) was investigated on isolated segments of the respiratory tract organs of albino guinea pigs, the inhibition of the contractions which can be caused by these mediators being used as measurement parameters.
(§2) To carry out the experiment, freshly prepared organs of male animals were used in each case. The trachea was divided into its rings, of which 5 tracheal rings in each case were linked with silk thread to give a chain, suspended under a tension of 0.5 g in an organ bath containing Tyrode solution at 37° C. through which was bubbled 95% O2/5% CO2, and contracted by addition of histamine dihydrochloride (bath concentration: 3×10^−7 g/ml) in the absence (control experiment) or in the presence of the test substances.
(§3) Each experiment comprised the parallel investigation of 6 organ preparations (n=6).
(§4) The assessment of the action of the preparation was carried out with the aid of the IC50 values, which represent that concentration in μg/ml at which the organ contraction produced in the control experiment was reduced by half.

Series [2] deals with PAF-induced contraction of isolated lung strips. Description: Anticonstrictive action against PAF-induced contraction of isolated lung strips. Details: species or system albino guinea pigs. The note with it: Cavia porcellus; guinea pig lung strips, PAF 10^−9 g/ml, n=6; read-out: Anticonstrictive action (IC50) PAT lung.
From the text: as §1, §2
(§5) The lungs were cut longitudinally into 2 to 3 strips, using which the process as described above was carried out. The tension, however, was 1 g and the contraction was induced by PAF or LTD4 at a bath concentration of 10^−9 or 10^−8 g/mi.
as §3, §4

The test system of series [3] is LTD4-induced contraction of isolated lung strips. Nature of the series: Anticonstrictive action against LTD4-induced contraction of isolated lung strips. Details: species or system albino guinea pigs. As to conditions: Cavia porcellus; guinea pig lung strips, LTD4 10^−8 g/ml, n=6.
From the text: as §1, §2, §5, §3, §4

Series [4] has as its system ovalbumin-induced asthma attack. Nature of the series: Inhibition of the antigen-induced early-phase reaction (ovalbumin-induced bronchospasm, Konzett-Rössler) in the presensitized guinea pig. As to conditions: Cavia porcellus, iv, protected = asthma reaction reduced by at least 40% relative to control; for responders at 10 mg/kg: 10 mg/kg i.v. 15 minutes before antigen; for responders at 25 mg/kg: 25 mg/kg i.v. 15 minutes before antigen. Format: in vivo, albino guinea pigs. The protocol:
Albino guinea pigs of both sexes having a body weight of 180 to 220 g were sensitized on two successive days by subcutaneous administration of 1 mg of ovalbumin (0.1% strength dissolved in physiological saline solution) in each case. 20 days later, the experiment was carried out according to the method of Konzett and […] (Arch. exp. Path. und Pharmak. (1940) 195: 75). For this purpose, the animals were anesthetized with pentobarbital, artificially ventilated, treated with alcuronium chloride to exclude spontaneous respiration and divided into groups of 6 animals in each case. By means of intravenous administration of ovalbumin as an antigen in a dose of 1 mg/kg, a long-lasting asthma attack was induced as a result of an acute bronchospasm induced by mediators in the course of the asthmatic early reaction, the intensity of which was quantified by means of the contraction height in the thoracogram. The test preparations were likewise administered intravenously 15 minutes before antigen provocation. Instead of this, the animals of the control group received pure 0.9% strength saline solution. To assess the action of the preparation, the number of animals of the respective collective in which the asthma reaction was reduced by at least 40% relative to the control animals was determined.

Series [5] deals with human eosinophilic granulocytes. Description: Inhibition of eosinophil activation by late-phase mediators, lucigenin-dependent chemiluminescence. Format: cell-based. As to conditions: 0.5 h, test substance 100 μM, human eosinophils, CL over 30 minutes. The text has this: The inhibitory action of the xanthines of formula I on the activation ability of human eosinophilic granulocytes by means of the late-phase mediators IL-5, GM-CSF, C5a and PAF was investigated with the aid of the lucigenin-dependent chemiluminescence (CL) reaction.
For this purpose, purified eosinophils were obtained from venous human blood according to known processes (Arch. Dermatol. Res. (1987) 279: 470-477 and J. Invest. Dermatol. (1986) 86: 523-528), pretreated with the test substances at the concentration 100 μM or with pure water (positive control (A)) at 37° C. for 10 minutes and then activated with IL-5 (10^2 U/ml), GM-CSF (10^3 U/ml), C5a (10^−7 M) or PAF (10^−6 M) or treated with water for the determination of the basal activity (B). The CL reaction was monitored over the course of 30 minutes measuring at 37° C. The residual activity of the cells pretreated with the test substances was calculated according to the following formula in percent of that of the positive control: [formula]
CLX describes the activity after stimulation of the cells pretreated with the xanthines,
CLA describes the activity after stimulation of the cells pretreated with water and
CLB describes the basal activity of unstimulated cells pretreated with water.

Setting [6] is: read-out: Protected animals after i.v. administration, % proportion.
Setting [7] is: read-out: Protected animals after i.v. administration, number (converted).
Where [8] appears, read: C5a 10^−7 M, read-out: Residual activity in % of the positive control A after stimulation with C5a.
The mark [9] stands for this setting: GM-CSF 10^3 U/ml, read-out: Residual activity in % of the positive control A after stimulation with GM-CSF.
[10] abbreviates: IL-5 10^2 U/ml, read-out: Residual activity in % of the positive control A after stimulation with IL-5.
[11] abbreviates: PAF 10^−6 M, read-out: Residual activity in % of the positive control A after stimulation with PAF.

As usually defined, the IC50 is the concentration that inhibits the measured activity by half. One may read the melting point as the temperature, or range, at which the solid turns liquid.

On to `CCn1c(=O)n(CCCC(C)(C)O)c(=O)c2[nH]cnc21` [Example 6, 3-Ethyl-1-(4-hydroxy-4-methylpentyl)xanthine], for which the melting point is 214 to 216 °C. This compound also showed an IC50 in series [1] of 30 µg/mL (≈ 107 µM). Besides, the concentration for half-maximal inhibition (IC50) in series [2] was 3 µg/mL (≈ 10.7 µM). In series [3], this compound had a 50% inhibitory concentration (IC50) of 1 to 3 µg/mL (≈ 3.57 to 10.7 µM).
In the case of `CCn1c(=O)n(CCC(C)(C)O)c(=O)c2[nH]cnc21` [Example 4, 3-Ethyl-1-(3-hydroxy-3-methylbutyl)xanthine], the melting point is 241 to 243 °C. Further, the IC50 in series [1] was 10 µg/mL (≈ 37.6 µM). Further, the IC50 in series [2] lay within 1 to 3 µg/mL (≈ 3.76 to 11.3 µM). In series [4] (setting [6]), the responders at 10 mg/kg stood at 17% and the responders at 25 mg/kg came to 50%. Moreover, in series [4] (setting [7]), the responders at 10 mg/kg is 16.7% and the responders at 25 mg/kg was 50%.
Take `Cn1c(=O)n(CCC(C)(C)O)c(=O)c2[nH]cnc21` [Example 3, 1-(3-Hydroxy-3-methylbutyl)-3-methylxanthine]: the melting point is 203 to 205 °C.
For `CCOCn1cnc2c1c(=O)n(CCCCC(C)(C)O)c(=O)n2C` [Torbafylline, 7-ethoxymethyl-1-(5-hydroxy-5-methylhexyl)-3-methylxanthine, reference compound], the values for the IC50 in series [1], in series [2] and in series [3] were 60 µg/mL (≈ 177 µM), 3 to 6 µg/mL (≈ 8.87 to 17.7 µM) and 10 to 30 µg/mL (≈ 29.6 to 88.7 µM), respectively. Also, the responders at 10 mg/kg in series [4] (setting [6]) and in series [4] (setting [7]) was 0% in each case. Besides, the responders at 25 mg/kg in series [4] (setting [6]) and in series [4] (setting [7]) was 0% each time. Further, the activity at 100 µM in series [5] (setting [8]) is 51%; in series [5] (setting [9]), 125%; in series [5] (setting [10]), 58%; in series [5] (setting [11]), 58%.
As for `CC(=O)CCCCn1c(=O)c2c(ncn2C)n(C)c1=O` [Pentoxifylline, 3,7-dimethyl-1-(5-oxohexyl)xanthine, reference compound], the 50% inhibitory concentration (IC50) in series [1] was 30 to 60 µg/mL (≈ 108 to 216 µM); in series [2], 3 µg/mL (≈ 10.8 µM); in series [3], 30 to 60 µg/mL (≈ 108 to 216 µM). Further, the results for the responders at 10 mg/kg in series [4] (setting [6]) and in series [4] (setting [7]) were 17% and 16.7%, respectively. The figures for the responders at 25 mg/kg in series [4] (setting [6]) and in series [4] (setting [7]) were 33% and 33.3%, respectively. In addition, the activity at 100 µM in series [5] (setting [8]) came to 56%; in series [5] (setting [9]), 70%; in series [5] (setting [10]), 57%; in series [5] (setting [11]) it was 45%.
`Cn1c(=O)n(CC(C)(C)O)c(=O)c2[nH]cnc21` [Example 1, 1-(2-Hydroxy-2-methylpropyl)-3-methylxanthine] showed a melting point of 215 to 217 °C.
Compound `CCn1c(=O)n(CCCCCC(C)(C)O)c(=O)c2[nH]cnc21` [Example 13, 3-Ethyl-1-(6-hydroxy-6-methylheptyl)xanthine] returned a melting point of 163 to 165 °C. The same compound yielded an IC50 in series [1] of 10 to 30 µg/mL (≈ 32.4 to 97.3 µM). The concentration for half-maximal inhibition (IC50) in series [2] turned out to be 1 µg/mL (≈ 3.24 µM).
As for `CCn1c(=O)n(CCCCC(C)(C)O)c(=O)c2[nH]cnc21` [Example 10, 3-Ethyl-1-(5-hydroxy-5-methylhexyl)xanthine], the melting point is 180 to 182 °C.
For the compound `CCC(C)(O)CCCCn1c(=O)c2[nH]cnc2n(C)c1=O` (stereo not drawn) [Example 9, 1-(5-Hydroxy-5-methylheptyl)-3-methylxanthine], the melting point lay in the range of 169 to 170 °C. The same compound displayed a concentration for half-maximal inhibition (IC50) in series [1] of 10 to 30 µg/mL (≈ 34 to 102 µM). The IC50 in series [2] is 10 µg/mL (≈ 34 µM). This compound also returned an IC50 in series [3] of 10 to 30 µg/mL (≈ 34 to 102 µM). In series [4] (setting [6]), the responders at 10 mg/kg amounted to 67% and the responders at 25 mg/kg came to 83%. In series [4] (setting [7]), the responders at 10 mg/kg is 66.7% and the responders at 25 mg/kg was 83.3%.
For `Cn1c(=O)n(CCCCCC(C)(C)O)c(=O)c2[nH]cnc21` [Example 12, 1-(6-Hydroxy-6-methylheptyl)-3-methylxanthine], the melting point fell in the range of 166 to 167 °C. Also, in series [1], the IC50 was 3 to 10 µg/mL (≈ 10.2 to 34 µM). The half-inhibitory concentration (IC50) in series [2] lay within 3 to 6 µg/mL (≈ 10.2 to 20.4 µM). The 50% inhibitory concentration (IC50) in series [3] is 6 to 10 µg/mL (≈ 20.4 to 34 µM). In series [4] (setting [6]), the responders at 10 mg/kg was determined as 50% and the responders at 25 mg/kg is 67%. Also, in series [4] (setting [7]), the responders at 10 mg/kg was 50% and the responders at 25 mg/kg is 66.7%.
The compound `Cn1c(=O)n(CCCCC(C)(O)CO)c(=O)c2[nH]cnc21` (stereo not drawn) [Example 8, 1-(5,6-Dihydroxy-5-methylhexyl)-3-methylxanthine] yielded a melting point of 181 to 182 °C. In addition, the IC50 in series [1] was 10 to 30 µg/mL (≈ 33.7 to 101 µM). Besides, the IC50 in series [2] was found to be 6 µg/mL (≈ 20.2 µM). Also, in series [3], the IC50 turned out to be 10 µg/mL (≈ 33.7 µM). Besides, in series [4] (setting [6]), the responders at 10 mg/kg was 50% and the responders at 25 mg/kg was 50%. In series [4] (setting [7]), the responders at 10 mg/kg was 50% and the responders at 25 mg/kg is 50%.
In the case of `CCn1c(=O)n(CCCCC(C)(O)CC)c(=O)c2[nH]cnc21` (stereo not drawn) [Example 11, 3-Ethyl-1-(5-hydroxy-5-methylheptyl)xanthine], the melting point was 165 to 166 °C.
`CCn1c(=O)n(CC(C)(C)O)c(=O)c2[nH]cnc21` [Example 2, 3-Ethyl-1-(2-hydroxy-2-methylpropyl)xanthine]: in series [4] (setting [6]), the responders at 10 mg/kg amounted to 33% and the responders at 25 mg/kg was 67%. Moreover, in series [4] (setting [7]), the responders at 10 mg/kg is 33.3% and the responders at 25 mg/kg was 66.7%.
Turning to `Cn1c(=O)n(CCCC(C)(C)O)c(=O)c2[nH]cnc21` [Example 5, 1-(4-hydroxy-4-methylpentyl)-3-methylxanthine], the melting point fell in the range of 188 to 189 °C. The compound also showed an IC50 in series [1] of 30 µg/mL (≈ 113 µM). The IC50 in series [2] came to 3 µg/mL (≈ 11.3 µM). The compound also displayed an IC50 in series [3] of 10 µg/mL (≈ 37.6 µM).
